Assay results: paper PMC2766634 (Journal of medicinal chemistry, 2009)

Experiments:
[1] = tested on: G. lamblia GS/M; test: Murine G. lamblia infection model; type: in vivo, Giardia lamblia in C57BL/6 mice; settings: mice, five doses over 3 days; for effect on infection (trophozoites in small intestine) at 10 mg/kg: 10 mg/kg oral gavage; for effect on infection (trophozoites in small intestine) at 2 mg/kg: 2 mg/kg oral gavage
[2] = Cyclic voltammetry in DMSO; type: physicochemical; settings: for E1/2 in DMSO (half-wave potential, 0/−1 reduction), mean ± SE: cyclic voltammetry, 0.10 M NBu4PF6 in DMSO, 25 °C, 100 mV/s; for E1/2 more positive than Mz: in DMSO, relative to Mz
[3] = Cyclic voltammetry in water pH 7.0; type: physicochemical; settings: pH 7.0 phosphate buffer, 0.1 M KCl, 25 °C
[4] = tested on: G. lamblia (WB/C6, GS/M, 106, and 713); test: Antigiardial growth inhibition; type: cell-based, Giardia lamblia; settings: IC50 in HeLa cells / EC50 in Giardia
[5] = tested on: HeLa cells; test: Cytotoxicity assay; type: cell-based, human; settings: Homo sapiens, HeLa, 48 h, read-out: toxicity in HeLa cells, pIC50 (mean ± SE) (converted)

## Cn1c([N+](=O)[O-])cnc1/C=C/c1ccccc1 [compound 5, 1-Methyl-5-nitro-2-[(E)-2-phenylvinyl]-1H-imidazole]
[1]
  effect on infection (trophozoites in small intestine) at 10 mg/kg: complete clearance of the infection
[2]
  E1/2 in DMSO (half-wave potential, 0/−1 reduction), mean ± SE: −1.517 ± 0.001 V vs Fc
  E1/2 more positive than Mz: 30–50 mV
[3]
  Ep in water (peak potential), mean ± SE: −0.634 ± 0.004 V vs SCE

## Cn1c([N+](=O)[O-])cnc1/C=C/c1cccc(F)c1 [compound 19, 2-[(E)-2-(3-Fluorophenyl)vinyl]-1-methyl-5-nitro-1H-imidazole]
[1]
  effect on infection (trophozoites in small intestine) at 2 mg/kg: significant activity
  effect on infection (trophozoites in small intestine) at 10 mg/kg: complete clearance of the infection
[2]
  E1/2 in DMSO (half-wave potential, 0/−1 reduction), mean ± SE: −1.502 ± 0.001 V vs Fc
[3]
  Ep in water (peak potential), mean ± SE: −0.613 ± 0.008 V vs SCE

## Cn1ccnc1/C=C/c1ncc([N+](=O)[O-])n1C [compound 28, 1-Methyl-2-[(E)-2-(1-methyl-1H-imidazol-2-yl)vinyl]-5-nitro-1H-imidazole]
[1]
  effect on infection (trophozoites in small intestine) at 2 mg/kg: significant activity
  effect on infection (trophozoites in small intestine) at 10 mg/kg: complete clearance of the infection
[4]
  selectivity ratio, IC50/EC50: 1,202
[2]
  E1/2 in DMSO (half-wave potential, 0/−1 reduction), mean ± SE: −1.497 ± 0.001 V vs Fc
  E1/2 more positive than Mz: 50–65 mV
[3]
  Ep in water (peak potential), mean ± SE: −0.594 ± 0.014 V vs SCE

## Cn1c([N+](=O)[O-])cnc1/C=C/c1ccc(Br)cc1 [compound 12, 2-[(E)-2-(4-Bromophenyl)vinyl]-1-methyl-5-nitro-1H-imidazole]
[1]
  effect on infection (trophozoites in small intestine) at 2 mg/kg: no significant activity
  effect on infection (trophozoites in small intestine) at 10 mg/kg: no significant activity
[2]
  E1/2 in DMSO (half-wave potential, 0/−1 reduction), mean ± SE: −1.506 ± 0.002 V vs Fc
[3]
  Ep in water (peak potential), mean ± SE: −0.605 ± 0.007 V vs SCE

## Cn1c([N+](=O)[O-])cnc1/C=C/c1ccco1 [compound 29, 2-[(E)-2-(2-Furyl)vinyl]-1-methyl-5-nitro-1H-imidazole]
[1]
  effect on infection (trophozoites in small intestine) at 10 mg/kg: complete clearance of the infection
[4]
  selectivity ratio, IC50/EC50: 2,754
[2]
  E1/2 in DMSO (half-wave potential, 0/−1 reduction), mean ± SE: −1.504 ± 0.003 V vs Fc
  E1/2 more positive than Mz: 50–65 mV
[5]
  IC50: 93.3 µM
